Each compound was assayed on rat small-intestinal brush border membrane vesicles (assay: Inhibitory effect on 33PO4 uptake into rat small-intestinal brush border membrane vesicles (rapid filtration method)). Conditions: 1 µM test compound; 33PO4 uptake into rat small-intestinal BBMVs, 60 seconds.
Assay type: biochemical, Wistar female rat
How it was run: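 33PO4 uptake into rat small-intestinal brush border membrane vesicles measured by rapid filtration. Reactions were stopped with ice-cold buffer (110 mM NaCl, 1 mM KH2PO4, 10 mM HEPES pH 7.5), filtered and washed. Vesicle-associated radioactivity was counted by liquid scintillation.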

| Compound | Rate of uptake inhibition (%) (1 µM) |
| --- | --- |
| CN1N(Cc2ccc(OCCOCCNCC(O)CO)c(F)c2F)C(=O)C(C(=O)Nc2ccc(C(F)(F)F)cc2-c2cc(C(F)(F)F)ncn2)=C(O)C12CCCC2 (stereo not shown) [Example 419, 7-[[4-[2-[2-(2,3-Dihydroxypropylamino)ethoxy]ethoxy]-2,3-difluorophenyl]methyl]-10-hydroxy-6-methyl-8-oxo-N-[4-(trifluoromethyl)-2-[6-(trifluoromethyl)pyrimidin-4-yl]phenyl]-6,7-diazaspiro[4.5]dec-9-ene-9-carboxamide] | 22 |
| CN(CCOCCOc1ccc(CN2C(=O)C(C(=O)Nc3ccc(C(F)(F)F)cc3-c3cc(C(F)(F)F)ncn3)=C(O)C3(CCCC3)N2C)c(F)c1F)C[C@H](O)[C@@H](O)[C@H](O)[C@H](O)CO [Example 420, 7-[[2,3-Difluoro-4-[2-[2-[methyl-[(2S,3R,4R,5R)-2,3,4,5,6-pentahydroxyhexyl]amino]ethoxy]ethoxy]phenyl]methyl]-10-hydroxy-6-methyl-8-oxo-N-[4-(trifluoromethyl)-2-[6-(trifluoromethyl)pyrimidin-4-yl]phenyl]-6,7-diazaspiro[4.5]dec-9-ene-9-carboxamide] | 19 |
| CN(CCOCCOCCOCCOCCOc1ccc(CN2C(=O)C(C(=O)Nc3ccc(C(F)(F)F)cc3-c3cc(C(F)(F)F)ncn3)=C(O)C3(CCCC3)N2C)c(F)c1F)C[C@@H](O)[C@H](O)[C@@H](O)[C@@H](O)CO [Example 421, 7-[[2,3-Difluoro-4-[2-[2-[2-[2-[2-[methyl-[(2R,3S,4S,5S)-2,3,4,5,6-pentahydroxyhexyl]amino]ethoxy]ethoxy]ethoxy]ethoxy]ethoxy]phenyl]methyl]-10-hydroxy-6-methyl-8-oxo-N-[4-(trifluoromethyl)-2-[6-(trifluoromethyl)pyrimidin-4-yl]phenyl]-6,7-diazaspiro[4.5]dec-9-ene-9-carboxamide] | 24 |
| CN(C[C@H](O)[C@@H](O)[C@H](O)[C@H](O)CO)C(=O)CCOCCOCCOc1ccc(CN2C(=O)C(C(=O)Nc3ccc(C(F)(F)F)cc3-c3cc(C(F)(F)F)ncn3)=C(O)C3(CCCC3)N2C)c(F)c1F [Example 422] | 29 |
| CN(C[C@H](O)[C@@H](O)[C@H](O)[C@H](O)CO)C(=O)CCOCCOCCOCCOc1ccc(CN2C(=O)C(C(=O)Nc3ccc(C(F)(F)F)cc3-c3cc(C(F)(F)F)ncn3)=C(O)C3(CCCC3)N2C)c(F)c1F [Example 423] | 5 |
| CN1N(Cc2ccc(OCCOCCOCCOCCC(=O)NCC(O)CO)c(F)c2F)C(=O)C(C(=O)Nc2ccc(C(F)(F)F)cc2-c2cc(C(F)(F)F)ncn2)=C(O)C12CCCC2 (stereo not shown) [Example 424] | 17 |
| CN(CCOCCC(=O)N(C)C[C@H](O)[C@@H](O)[C@H](O)[C@H](O)CO)CCOc1ccc(CN2C(=O)C(C(=O)Nc3ccc(C(F)(F)F)cc3-c3cc(C(F)(F)F)ncn3)=C(O)C3(CCCC3)N2C)c(F)c1F [Example 425] | 5 |
| CN(CCOCCC(=O)NCC(O)CO)CCOc1ccc(CN2C(=O)C(C(=O)Nc3ccc(C(F)(F)F)cc3-c3cc(C(F)(F)F)ncn3)=C(O)C3(CCCC3)N2C)c(F)c1F (stereo not shown) [Example 426] | 24 |
| CN1N(Cc2ccc(OCCOCCNC(=O)[C@@H](O)[C@H](O)[C@@H](O)[C@@H](O)CO)c(F)c2F)C(=O)C(C(=O)Nc2ccc(C(F)(F)F)cc2-c2cc(C(F)(F)F)ncn2)=C(O)C12CCCC2 [Example 427, 7-[[2,3-Difluoro-4-[2-[2-[[(2S,3R,4S,5S)-2,3,4,5,6-pentahydroxyhexanoyl]amino]ethoxy]ethoxy]phenyl]methyl]-10-hydroxy-6-methyl-8-oxoN-[4-(trifluoromethyl)-2-[6-(trifluoromethyl)pyrimidin-4-yl]phenyl]-6,7-diazaspiro[4.5]dec-9-ene-9-carboxamide] | 12 |
| CN1N(Cc2ccc(OCCOCCOCCOCCNC(=O)[C@@H](O)[C@H](O)[C@@H](O)[C@@H](O)CO)c(F)c2F)C(=O)C(C(=O)Nc2ccc(C(F)(F)F)cc2-c2cc(C(F)(F)F)ncn2)=C(O)C12CCCC2 [Example 428, 7-[[2,3-Difluoro-4-[2-[2-[2-[2-[[(2S,3R,4S,5S)-2,3,4,5,6-pentahydroxyhexanoyl]amino]ethoxy]ethoxy]ethoxy]ethoxy]phenyl]methyl]-10-hydroxy-6-methyl-8-oxo-N-[4-(trifluoromethyl)-2-[6-(trifluoromethyl)pyrimidin-4-yl]phenyl]-6,7-diazaspiro[4.5]dec-9-ene-9-carboxamide] | 14 |
| COCCN(C)CCOCCOc1ccc(CN2C(=O)C(C(=O)Nc3ccc(C(F)(F)F)cc3-c3cc(C(F)(F)F)ncn3)=C(O)C3(CCCC3)N2C)c(F)c1F [Example 429, 7-[[2,3-Difluoro-4-[2-[2-[2-methoxyethyl(methyl)amino]ethoxy]ethoxy]phenyl]methyl]-10-hydroxy-6-methyl-8-oxo-N-[4-(trifluoromethyl)-2-[6-(trifluoromethyl)pyrimidin-4-yl]phenyl]-6,7-diazaspiro[4.5]dec-9-ene-9-carboxamide] | 41 |
| COCCN(C)CCOCCOCCOc1ccc(CN2C(=O)C(C(=O)Nc3ccc(C(F)(F)F)cc3-c3cc(C(F)(F)F)ncn3)=C(O)C3(CCCC3)N2C)c(F)c1F [Example 430] | 29 |
| COCCN(C)CCOCCOCCOCCOc1ccc(CN2C(=O)C(C(=O)Nc3ccc(C(F)(F)F)cc3-c3cc(C(F)(F)F)ncn3)=C(O)C3(CCCC3)N2C)c(F)c1F [Example 431] | 26 |
| COCCN(C)CCOCCOCCOCCOCCOc1ccc(CN2C(=O)C(C(=O)Nc3ccc(C(F)(F)F)cc3-c3cc(C(F)(F)F)ncn3)=C(O)C3(CCCC3)N2C)c(F)c1F [Example 432] | 11 |
| COCCN(C)CCOc1c(I)cc(CN2C(=O)C(C(=O)Nc3ccc(C(F)(F)F)cc3-c3cc(C(F)(F)F)ncn3)=C(O)C3(CCCC3)N2C)c(F)c1F [Example 437, 7-[[2,3-Difluoro-5-iodo-4-[2-[2-methoxyethyl(methyl)amino]ethoxy]phenyl]methyl]-10-hydroxy-6-methyl-8-oxo-N-[4-(trifluoromethyl)-2-(6-(trifluoromethyl)pyrimidin-4-yl]phenyl]-6,7-diazaspiro[4.5]dec-9-ene-9-carboxamide] | 45 |
| COCCOc1cc(NC(=O)C2=C(O)C3(CCCC3)N(C)N(Cc3ccc(OCCN(C)CCOC)c(F)c3F)C2=O)c(-c2ncnc(C(F)(F)F)c2C)cc1C(F)(F)F [Example 439, 7-[[2,3-Difluoro-4-[2-[2-methoxyethyl(methyl)amino]ethoxy]phenyl]methyl]-10-hydroxy-N-[5-(2-methoxyethoxy)-2-[5-methyl-6-(trifluoromethyl)pyrimidin-4-yl]-4-(trifluoromethyl)phenyl]-6-methyl-8-oxo-6,7-diazaspiro[4.5]dec-9-ene-9-carboxamide] | 35 |
| COCCN(C)CCOc1c(-c2cccnc2)cc(CN2C(=O)C(C(=O)Nc3ccc(C(F)(F)F)cc3-c3cc(C(F)(F)F)ncn3)=C(O)C3(CCCC3)N2C)c(F)c1F [Example 440, 9-[[2,3-Difluoro-4-[2-[2-methoxyethyl(methyl)amino]ethoxy]-5-(3-pyridinyl)phenyl]methyl]-6-hydroxy-10-methyl-8-oxo-N-[4-(trifluoromethyl)-2-[6-(trifluoromethyl)pyrimidin-4-yl]phenyl]-9,10-diazaspiro[4.5]dec-6-ene-7-carboxamide] | 28 |
| CN(C[C@H](O)[C@@H](O)[C@H](O)[C@H](O)CO)C(=O)COCCOCCOCCOCCOc1ccc(CN2C(=O)C(C(=O)Nc3ccc(C(F)(F)F)cc3-c3cc(C(F)(F)F)ncn3)=C(O)C3(CCCC3)N2C)c(F)c1F [Example 441, 7-[[2,3-Difluoro-4-[2-[2-[2-[2-[2-[methyl-[(2S,3R,4R,5R)-2,3,4,5,6-pentahydroxyhexyl]amino]-2-oxoethoxy]ethoxy]ethoxy]ethoxy]ethoxy]phenyl]methyl]-10-hydroxy-6-methyl-8-oxo-N-[4-(trifluoromethyl)-2-[6-(trifluoromethyl)pyrimidin-4-yl]phenyl]-6,7-diazaspiro[4.5]dec-9-ene-9-carboxamide] | 22 |
| COCCN(C)CCN(C)c1ccc(CN2C(=O)C(C(=O)Nc3ccc(C(F)(F)F)cc3-c3cc(C(F)(F)F)ncn3)=C(O)C3(CCCC3)N2C)c(F)c1F [Example 442] | 24 |
| CCN(CCN(C)CCOC)c1ccc(CN2C(=O)C(C(=O)Nc3ccc(C(F)(F)F)cc3-c3cc(C(F)(F)F)ncn3)=C(O)C3(CCCC3)N2C)c(F)c1F [Example 443] | 28 |
| CCCN(CCN(C)CCOC)c1ccc(CN2C(=O)C(C(=O)Nc3ccc(C(F)(F)F)cc3-c3cc(C(F)(F)F)ncn3)=C(O)C3(CCCC3)N2C)c(F)c1F [Example 444] | 24 |
| COCCN(C)CCN(c1ccc(CN2C(=O)C(C(=O)Nc3ccc(C(F)(F)F)cc3-c3cc(C(F)(F)F)ncn3)=C(O)C3(CCCC3)N2C)c(F)c1F)C(C)C [Example 445] | 29 |
| CN1N(Cc2ccc(NCCCN3CCOCC3)c(F)c2F)C(=O)C(C(=O)Nc2ccc(C(F)(F)F)cc2-c2cc(C(F)(F)F)ncn2)=C(O)C12CCCC2 [Example 446] | 31 |
| CN1N(Cc2ccc(NCCN3CCOCC3)c(F)c2F)C(=O)C(C(=O)Nc2ccc(C(F)(F)F)cc2-c2cc(C(F)(F)F)ncn2)=C(O)C12CCCC2 [Example 447] | 50 |

Same assay, conditions: 1 µM test compound; 33PO4 uptake into rat small-intestinal BBMVs, 60 seconds; 1 µM

| Compound | Rate of uptake inhibition (%) (1 µM) |
| --- | --- |
| CN1N(Cc2ccc(OCCNCCS(=O)(=O)O)c(F)c2F)C(=O)C(C(=O)Nc2ccc(C(F)(F)F)cc2-c2cc(C(F)(F)F)ncn2)=C(O)C12CCCC2 [Example 435, 2-[2-[2,3-Difluoro-4-[[10-hydroxy-6-methyl-8-oxo-9-[[4-(trifluoromethyl)-2-[6-(trifluoromethyl)pyrimidin-4-yl]phenyl]carbamoyl]-6,7-diazaspiro[4.5]dec-9-en-7-yl]methyl]phenoxylethy]amino]ethanesulfonic acid] | 11 |
